Reference: patent US11351538B2, “Fluidic device and method of assembling same” (Northeastern University, priority 2017, dated 2022)

Tested on: primary human intestinal epithelial monolayers
Test: Paracellular permeability measurement across primary organoid derived monolayers (bi-layer chips vs static inserts)
Format: in vitro ADME
Conditions: apical to basal, 5 days, p-value=0.0029
Description: The apparent permeability coefficient for a 4.4 kDa, tetramethylrhodamine (TRITC) labeled dextran (cat no. T1037, Sigma-Aldrich) was determined by measuring transport across the Caco-2 cell monolayer. TEER values of cell monolayers were measured prior to the permeability assay and monolayers with TEER values below 165Ω×cm^2 were not used. For control Transwell cultures, 300 μL of 500 μM dextran in cell culture medium was applied to the apical compartment. 100 μL was immediately sampled from the apical compartment, transferred to a black, polystyrene, 96 well plate and stored in a 4° C. fridge. Transwells were maintained in a humidified, 37° C.+5% CO2 incubator. 100 μL aliquots were sampled from the basolateral compartment every 30 minutes over 3 hours and 100 μL of fresh medium preheated to 37° C. was added to replace the aliquoted volume. The fluorescence intensity of the collected basolateral samples was measured at 557 nm and 576 nm […] wavelengths, respectively. The actual dextran concentration was determined via a calibration curve. The apparent permeability coefficient was calculated as specified. […] The apparent permeability coefficient for Lucifer Yellow (cat no. L0259, Sigma-Aldrich) across primary organoid derived monolayers on static inserts and bi-layer chips was determined as described above. […]

apparent permeability, change between 5-day static and fluidic device models: significant increase
Substance: Lucifer Yellow
